According to US12569557B2, “Targeting moDC to enhance vaccine efficacy on mucosal surface” (UNIVERSITY OF FLORIDA RESEARCH FOUNDATION, INCORPORATED, priority 2018, dated 2026):
“Also recorded” adds a separate entry of the source.

Legend:
[1] = system: mTNF; test: Cell surface mTNF expression on lung DCs detected with TNFR2-Fc recombinant protein; format: in vivo; settings: WT mice, i.n. CDG 16 hours
Experimental: We intranasally administered CDG to WT mice for 16 hours and detected cell surface mTNF expression using […] recombinant protein (FIG. 8A).
The following Abs from Biolegend were used in the flow cytometry: CD80 (16-10A1), CD86 (GL1), CD11B (M1/70), CD11C (N418), FcεRIa (MAR-1), MHC II (M5/114.15.2), CD103(2E7), CD24 (m1/69), CD64 (x54-5/7.1), CCR7 (4B12), TNF (MP6-XT22), TNFR2 (TR75-89), PD-L1 (10F.9G2), BTLA (8F4), PD-L2 (TY25), CD301b (URA-1), CX3CR1 (SA011F11), CD172a (P84), CD44 (IM7). The following Abs were from Cell Signaling: p-TBK1 (ser172, d52c2), p-RelB (ser552, d41b9), p-RelA (ser536, cat #4887S). The following reagents were from Sino Biological: TNFR2 Ab (cat #50128-R112-A), TNFR2-Fc (mouse TNFR2 extracellular domain, Met 1-Gly 258, was fused with the Fc region of human IgG1 at the C-terminus, cat #50128-M02H), human IgG1 Fc (cat #10702-HNAH). Alexa Fluor®488 mouse anti-human IgG1 Fc was from Invitrogen (cat #A-10631). FITC-CDG (2′-Fluo-AHC-CDG) was from Biolog (cat #F009). Cell sorting was performed on the BD FACSAriaIII Flow Cytometer and Cell Sorter. After sorting, dendritic cells were CFSE labeled, according to the protocol from the manufacturer (Invitrogen).

[2] = cited from earlier work
[3] = system: H5N1 influenza, Acinetobacter baumannii, Staphylococcus aureus, Klebsiella pneumoniae and Streptococcus pneumoniae; settings: cited from earlier work
[4] = system: PspA-specific Th1, Th2, Th17 responses; test: Ex vivo recall of PspA-specific Th responses in lung cells and splenocytes of immunized mice; settings: immunized IRF4fl/flCD11ccre mice
Experimental: (§1) Groups of mice (4 per group) were intranasally vaccinated with CDG (5 μg, Invivogen, cat #vac-cdg) adjuvanted PspA (2 μg, BEI Resources) or PspA alone^17. Mice were immunized twice at 14 days interval. For intranasal vaccination, animals were anesthetized using isoflurane in an E-Z Anesthesia system (Euthanex Corp, Palmer, Pa.). PspA, with or without CDG was administered in 20 μl saline. Sera were collected 14 days after the last immunization. The PspA-specific Abs were determined by ELISA. Secondary Abs used were anti-mouse IgG1-HRP (Southern Biotech, cat #1070-05), anti-mouse IgG2C-HRP (Southern Biotech, cat #1079-05), and anti-mouse IgA-HRP (Southern Biotech, cat #1040-05). To determine Ag-specific Th response, splenocytes from PspA or CDG+PspA immunized mice were stimulated with 5 μg/ml PspA for four days in culture. Th1, Th2, and Th17 cytokines were measured in the supernatant by ELISA.

[5] = system: lung DCs; test: Lung DC / alveolar macrophage maturation (CD86, CCR7) after intranasal CDG, flow cytometry; format: in vivo, mice
[6] = system: lung TNF; settings: administered intranasally; cited from earlier work
[7] = system: moDCs; test: Antigen presentation by lung moDCs after intranasal CDG and Eα-OVA (YAE mAb); format: in vivo, C57BL/6 mice; settings: CDG and Eα-OVA i.n.
Excerpt: How does non-migratory moDCs (FIGS. 1D & 12B)^25,33 promote CDG-induced antibody responses? moDCs were efficient at antigen processing (FIG. 8D). We first asked if they presented antigen on cell surface. We intranasally administered C57BL/6 mice with CDG and Eα-OVA, and detected I-A^b/Eα^+ cells with the YAE mAb. Indeed, CDG increased YAE^+ moDCs in vivo (FIG. 9A).

[8] = system: lung TNF; test: Detection of lung cytokine production after intranasal CDG (ELISA of lung homogenates); format: in vivo, mice
Experimental: Mice were intranasally administered 5 μg CDG, then sacrificed after 5 hrs by C02 asphyxiation^17. Lungs were perfused with cold PBS. The harvested lungs were washed with PBS once, then stored in 0.7 ml Tissue protein extraction reagent (T-PER) (Thermo Scientific, cat #78510) containing protease inhibitors (Roche, cat #11836153001) at −80° C. Later, the lung was thawed on ice and homogenized with Minilys® (Precellys, 5,000 RPM for 30 sec) using Precellys lysing kit (Precellys, cat #KT03961). Lung homogenates were transferred to a 1.5 ml tube and spun at 14,000 g for 30 min at 4° C. The supernatant was collected and analyzed for TNF production by ELISA (eBioscience, cat #88-7324).

[9] = system: RelA, RelB, TBK1; test: pRelA, pRelB and p-TBK1 in lung DC subsets after intranasal CDG, flow cytometry; format: in vivo, mice
[10] = system: anti-PspA IgG and IgA; test: Intranasal CDG/PspA immunization: PspA-specific antibodies in serum and BALF by ELISA; format: in vivo, mice
Experimental: as §1

[11] = system: TNFR2; format: in vivo, mice

Nc1nc2c(ncn2[C@@H]2O[C@@H]3COP(=O)(O)O[C@H]4[C@@H](O)[C@H](n5cnc6c(=O)[nH]c(N)nc65)O[C@@H]4COP(=O)(O)O[C@H]3[C@H]2O)c(=O)[nH]1 [CDG, cyclic di-GMP]
mTNF expression on TNFR2+ cDC2 [1]: expressed little mTNF | mTNF expression on TNFR2− cDC2 [1]: main mTNF^+ cDC2 cells | Over-inflammatory responses in the lung ([2]; intranasal adjuvant): does not induce over-inflammatory responses | Acute toxicity as a mucosal adjuvant ([2]; mice): does not cause acute toxicity | Adjuvant activity / response in MPYS−/− mice ([3]; MPYS−/− mice): do not respond | Cancer vaccine adjuvant activity ([3]; animal models): showed cancer vaccine adjuvant activity | Activation of Th1 and Th2 immune response vs LPS, CpG ODN or aluminum salt based adjuvant ([3]; mice): more potent activator | PspA-specific Th1, Th2, Th17 responses, ex vivo recall in lung cells and splenocytes [4]: did not show PspA-specific Th1, Th2 or Th17 responses | CD86 on lung moDCs ([5]; Batf3−/− mice): unaltered | CD86 on lung moDCs ([5]; IRF4fl/flCD11ccre mice): failed to upregulate CD86 | Activation of lung DCs (CD86) ([5]; MPYSfl/flLysMcre mice): unaltered | CD86 expression on moDCs ([5]; MPYSfl/flLysMcre mice): normal levels of CD86 expression | CD86 on lung cDC1 ([5]; RelBfl/flCD11ccre mice): upregulated CD86 | CD86 on lung cDC2 ([5]; RelBfl/flCD11ccre mice): failed to upregulate CD86 | CD86 on lung moDCs ([5]; RelBfl/flCD11ccre mice): induced | CD86 and CCR7 expression on cDC1 ([5]; TNFR2−/− mice): induced | CD86 on lung moDCs ([5]; TNFR2−/− mice): did not upregulate CD86 | CD86 or CCR7 expression in lung cDC2 ([5]; TNFR2−/− mice): did not enhance | CD86 expression on alveolar macrophages ([5]; WT mice, CDG treatment i.n.): did not increase expression of CD86 | CCR7 expression on lung moDCs ([5]; WT mice, i.n. CDG): did not increase CCR7 | CD86 and CCR7 expression in lung cDC1 and cDC2 ([5]; WT mice, i.n. CDG): increased | CD86 expression on lung moDCs ([5]; WT mice, i.n. CDG): increased expression of CD86 | Migration of activated moDCs to lung draining lymph nodes ([5]; WT mice, i.n. CDG): did not migrate to dLNs | Lung production of TNF, IL-1β and IL-10 [6]: induced | YAE+ moDCs (I-Ab/Eα presentation) [7]: increased | CDG-induced lung MCP-1 production ([8]; Batf3−/− mice (lack cDC1)): largely absent | CDG-induced lung production of TNF, IL-1β and IL-12p70 ([8]; IRF4fl/flCD11ccre mice (lack cDC2)): dramatically reduced | CDG-induced lung TNF production ([8]; TBK1fl/flVavCre mice): dramatically reduced | Lung TNF ([8]; TNFR2−/− mice): induced | TBK1 activation (p-TBK1) in cDC2 ([9]; TNFR2−/− mice): activated | RelA activation in lung cDC1 ([9]; i.n. CDG): activated RelA | RelA and RelB activation in lung moDCs ([9]; i.n. CDG): activated both RelA and RelB | RelB activation in lung cDC2 ([9]; i.n. CDG): activated RelB; also recorded: further activate RelB | Anti-PspA Abs in BALF and serum ([10]; IRF4fl/flCD11ccre mice, PspA with CDG i.n.): did not induce | Humoral and cellular immune responses ([10]; TNFR1−/− mice): reduced humoral and cellular immune responses | Adjuvant activity (humoral and cellular responses) ([10]; TNFR2−/− mice): completely lost its adjuvant activity | TNFR2 expression on moDCs ([11]; WT mice): induced | TNFR2 expression on lung cDC1 ([11]; WT mice, i.n. CDG 16 hrs): dramatically increased | PD-L1 expression on transferred TNFR2+ and TNFR2− cDC2 ([11]; cDC2 subsets transferred into MPYS−/− mice, CDG i.n. 16 hrs): did not affect
